Laboratory results reported in the supplement of paper PMC5579334.

Tests used:
HS-PSS [1] = experiment: relative IC50 (inflection point of fitted dose-response curve, CellTox-Green cytotoxicity, 72 h; top asymptote may be below 50%); higher = less potent
Method in brief: (§1)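 For 72 h at 37 °C, MPNST cell lines and primary human Schwann cells were exposed in 384-well plates to five 10-fold compound dilutions. CellTox-Green, added before seeding at a final 1:1000 dilution, gave fluorescence from DNA released by disrupted cells. Signals were scaled to vehicle and positive-control wells, cultures failing plate quality control were left out, and four-parameter logistic fits were applied. Relative IC50 and drug sensitivity score were derived from the fits, with IC50 censored at the top concentration.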

HSC1 [2] = experiment: as above
Method in brief: as §1

HSC2 [3] = experiment: as above
Method in brief: as §1

ST8814 [4] = experiment: as above
Method in brief: as §1

STS26T [5] = experiment: as above
Method in brief: as §1

HS-PSS [6] = experiment: relative IC50 (inflection point of fitted dose-response curve, CellTiter-Glo viability, 72 h; top asymptote may be below 50% inhibition); higher = less potent
Method in brief: (§2)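 After seeding 750–1000 cells per well of MPNST cell lines or primary human Schwann cells into 384-well plates preprinted with each compound at five concentrations in 10-fold steps, plates were kept 72 h at 37 °C, 5% CO2. Viability was read as CellTiter-Glo ATP luminescence relative to vehicle and positive-control wells, with duplicates averaged where present. The data were fitted with four-parameter logistic models. Drug sensitivity score and relative IC50, censored at the top concentration, derive from the fits, and percent inhibition refers to the top concentration.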

HS-Sch-2 = experiment: as above
Method in brief: as §2

HSC1 [7] = experiment: as above
Method in brief: as §2

S1507-2 = experiment: as above
Method in brief: as §2

ST8814 [8] = experiment: as above
Method in brief: as §2

YST-1 = experiment: as above
Method in brief: as §2

S462 = experiment: as above
Method in brief: as §2

STS26T [9] = experiment: as above
Method in brief: as §2

HSC2 [10] = experiment: as above
Method in brief: as §2

Compound | relative IC50 (HS-PSS [1]) [µM] | relative IC50 (HSC1 [2]) [µM] | relative IC50 (HSC2 [3]) [µM] | relative IC50 (ST8814 [4]) [µM] | relative IC50 (STS26T [5]) [µM] | relative IC50 (HS-PSS [6]) [µM] | relative IC50 (HS-Sch-2) [µM] | relative IC50 (HSC1 [7]) [µM] | relative IC50 (S1507-2) [µM] | relative IC50 (ST8814 [8]) [µM] | relative IC50 (YST-1) [µM] | relative IC50 (S462) [µM] | relative IC50 (STS26T [9]) [µM] | relative IC50 (HSC2 [10]) [µM]
Cc1cccc(-c2nn3c(c2-c2ccnc4ccc(C(N)=O)cc24)CCC3)n1 [Galunisertib] | > 1 | > 1 | > 1 | > 1 | > 1 | > 1 | > 1 | > 1 | > 1 | > 1 | > 1 |  |  | 
O=C(O)CC[C@H]1CC[C@@](c2cc(F)ccc2F)(S(=O)(=O)c2ccc(Cl)cc2)CC1 [MK-0752] | > 1 | > 1 | > 1 | > 1 | > 1 | > 1 |  |  | > 1 | > 1 | > 1 | > 1 | > 1 | 
CN(C)C/C=C/C(=O)Nc1cc2c(Nc3ccc(F)c(Cl)c3)ncnc2cc1O[C@H]1CCOC1 [Afatinib] | > 1 | > 1 | > 1 | > 1 | > 1 | 0.148 |  | > 1 |  | > 1 | > 1 | > 1 | > 1 | > 1
Cn1cnc(-c2cc3nccc(Oc4ccc(NC(=S)NC(=O)Cc5ccccc5)cc4F)c3s2)c1 [MGCD-265] | > 10 | > 10 |  |  | > 10 |  | 1.73 |  | 0.501 | 0.439 |  | 2.1 |  | 
CN(C)C(=N)NC(=N)N [Metformin aq] |  | > 100 | > 100 | > 100 | > 100 |  |  | > 100 | > 100 | > 100 |  |  | > 100 | > 100
COc1ncc(-c2ccc3nccc(-c4ccnnc4)c3c2)cc1NS(=O)(=O)c1ccc(F)cc1F |  | > 1 | > 1 | 0.161 |  |  |  | 0.0227 | 0.0176 | 0.0522 |  | 0.0632 | 0.0185 | 0.0255
Cn1cc(C[C@@H](N)C(=O)O)c2ccccc21 [1-methyl-D-tryptophan aq] |  | > 5 | > 5 | > 5 |  |  |  | > 5 | > 5 | > 5 |  | > 5 | > 5 | > 5
FC(F)c1nc2ccccc2n1-c1nc(N2CCOCC2)nc(N2CCOCC2)n1 [ZSTK474] | > 10 | > 10 |  | > 10 |  | 0.831 | 1.05 | 0.876 | 0.251 | 0.658 | 0.248 | 0.582 | 0.244 | 0.692
COc1cc(Nc2ncc(F)c(Nc3ccc4c(n3)NC(=O)C(C)(C)O4)n2)cc(OC)c1OC [Tamatinib] | > 10 | > 10 |  |  |  | > 10 |  | 0.665 | > 10 |  | > 10 | > 10 |  | 1.59
Cn1c(=O)c(F)c(Nc2ccc(I)cc2F)c2c(=O)n(C[C@@H](O)CO)cnc21 [TAK-733] | > 1 | > 1 | > 1 | 0.218 |  | 0.162 | 0.152 | 0.0973 | 0.085 | 0.0879 |  | 0.0585 | 0.0251 | 0.0906
COc1cc2c(NC3CCN(C(C)C)CC3)nc(C3CCCCC3)nc2cc1OCCCN1CCCC1 [UNC0638] | 2.54 |  | > 10 | 2.23 | 3.39 | 1.74 | 2.27 |  | 1.72 | 2.64 | 2.87 | 2.73 | 3.5 | 
CNCc1ccc(-c2[nH]c3cc(F)cc4c3c2CCNC4=O)cc1 [Rucaparib] | > 10 | > 10 | > 10 | > 10 | > 10 | 1.04 |  | > 10 | > 10 | > 10 | 0.447 |  | > 10 | > 10
COc1cccc2c1C(=O)c1c(O)c3c(c(O)c1C2=O)C[C@@](O)(C(=O)CO)C[C@@H]3O[C@H]1C[C@H](N)[C@H](O)[C@H](C)O1 [Doxorubicin] | 0.367 |  | 0.346 | > 1 |  | 0.199 | 0.133 | 0.0832 | 0.0725 | 0.13 | 0.0549 | 0.0712 | 0.0812 | 0.109
C[C@]12CC[C@@H]3c4ccc(O)cc4C[C@@H](CCCCCCCCC[S+]([O-])CCCC(F)(F)C(F)(F)F)[C@H]3[C@@H]1CC[C@@H]2O (some centres not stated) [Fulvestrant] | > 1 | > 1 | > 1 | > 1 | > 1 |  | > 1 |  | > 1 | > 1 | > 1 | > 1 | > 1 | 
c1cc(CN2CCCNCCNCCCNCC2)ccc1CN1CCCNCCNCCCNCC1 [Plerixafor aq] |  | > 10 | 2.81 | > 10 |  |  |  | > 10 | > 10 | > 10 |  | > 10 | > 10 | > 10
CC/C(=C(\c1ccccc1)c1ccc(OCCN(C)C)cc1)c1ccccc1 [Tamoxifen] | > 10 | > 10 | > 10 | 2.49 |  | 3.9 | 2.3 |  | 3.95 | 3.34 | 3.25 |  |  | 3.37
CN(C)/N=N/c1[nH]cnc1C(N)=O [Dacarbazine] | > 10 | > 10 | > 10 | > 10 | > 10 | > 10 | > 10 | > 10 | > 10 | > 10 | > 10 |  |  | > 10
